“And” between values parts separate entries of the source, which are not always exact repeats. Identical values can stand only once. Where a SMILES comes first, the peptide text is derived from it.

We go through 13 molecules from US9340580B2, “Peptide with multiple epitopes” (priority 2007, dated 2016).

The first series can be described thus: solubility pre-screen in an aqueous, acidic milieu.
Conditions: not given
The class given is physicochemical.
Take `CC[C@H](C)[C@H](NC(=O)[C@@H](NC(=O)[C@H](C)NC(=O)[C@@H](NC(=O)[C@H](C)NC(=O)[C@H](CO)NC(=O)[C@H](Cc1c[nH]cn1)NC(=O)[C@@H](NC(=O)[C@H](CCC(N)=O)NC(=O)[C@H](C)NC(=O)[C@H](CC(C)C)NC(=O)[C@H](C)NC(=O)[C@H](CCC(=O)O)NC(=O)[C@@H](N)CCCNC(=N)N)[C@@H](C)O)[C@@H](C)CC)C(C)C)C(=O)O` [HDM09A] (H-REALAQTHSAIAVI-OH; N-terminus and C-terminus assumed): the Solubility test entry is reported as “YES”.
On to `CC(C)C[C@H](NC(=O)[C@H](CCC(N)=O)NC(=O)[C@H](Cc1ccccc1)NC(=O)[C@@H]1CCCN1C(=O)[C@@H](N)CCCCN)C(=O)N[C@@H](CCC(=O)O)C(=O)N[C@@H](C)C(=O)N[C@H](C(=O)N[C@@H](Cc1ccccc1)C(=O)N[C@@H](CCC(=O)O)C(=O)N[C@@H](C)C(=O)N[C@@H](CC(N)=O)C(=O)N[C@@H](CCC(N)=O)C(=O)N[C@@H](CC(N)=O)C(=O)N[C@H](C(=O)N[C@@H](CCCCN)C(=O)O)[C@@H](C)O)C(C)C` [HDM21A] (H-KPFQLEAVFEANQNTK-OH; N-terminus and C-terminus assumed), for which the Solubility test result was “YES”.
Still for that read-out and setting: in the case of `CSCC[C@H](NC(=O)[C@@H]1CCCN1C(=O)[C@H](CC(=O)O)NC(=O)[C@H](Cc1ccccc1)NC(=O)[C@@H](NC(=O)[C@@H](N)CCC(=O)O)[C@@H](C)O)C(=O)N[C@@H](CCCCN)C(=O)N[C@H](C(=O)N1CCC[C@H]1C(=O)N[C@@H](CC(=O)O)C(=O)N[C@@H](Cc1c[nH]cn1)C(=O)N[C@@H](CO)C(=O)N[C@@H](CC(=O)O)C(=O)N[C@@H](CCCCN)C(=O)O)C(C)C` [HDM29A] (H-ETFDPMKVPDHSDK-OH) it was “YES”.
On the same count and under the same terms, in the case of `CSCC[C@H](NC(=O)[C@@H]1CCCN1C(=O)[C@H](CC(=O)O)NC(=O)[C@H](Cc1ccccc1)NC(=O)[C@@H](NC(=O)[C@@H](N)CCC(=O)O)[C@@H](C)O)C(=O)N[C@@H](CCCCN)C(=O)N[C@H](C(=O)N1CCC[C@H]1C(=O)N[C@@H](CC(=O)O)C(=O)N[C@@H](Cc1c[nH]cn1)C(=O)N[C@@H](CO)C(=O)N[C@@H](CC(=O)O)C(=O)O)C(C)C` [HDM29] (H-ETFDPMKVPDHSD-OH) it was “YES”.
Turning to `CC[C@H](C)[C@H](NC(=O)[C@H](CC(N)=O)NC(=O)[C@H](CCCNC(=N)N)NC(=O)[C@H](CCSC)NC(=O)[C@H](CC(=O)O)NC(=O)[C@@H](N)CC(C)C)C(=O)N[C@@H](CCC(N)=O)C(=O)N[C@H](C(=O)N[C@@H](CCCNC(=N)N)C(=O)NCC(=O)N[C@@H](CC(C)C)C(=O)N[C@@H](CCCCN)C(=O)N[C@@H](CCC(N)=O)C(=O)O)C(C)C` [HDM33] (H-LDMRNIQVRGLKQ-OH; N-terminus and C-terminus assumed), the Solubility test result is reported as “YES”.
Turning to `CC[C@H](C)[C@H](NC(=O)[C@H](CC(N)=O)NC(=O)[C@@H](N)CCCNC(=N)N)C(=O)N[C@@H](CCC(N)=O)C(=O)N[C@H](C(=O)N[C@@H](CCCNC(=N)N)C(=O)NCC(=O)N[C@@H](CC(C)C)C(=O)N[C@@H](CCCCN)C(=O)N[C@@H](CCC(N)=O)C(=O)N[C@@H](CCSC)C(=O)N[C@@H](CCCCN)C(=O)N[C@@H](CCCNC(=N)N)C(=O)N[C@H](C(=O)NCC(=O)O)C(C)C)C(C)C` [HDM34] (H-RNIQVRGLKQMKRVG-OH; N-terminus and C-terminus assumed), the Solubility test entry is recorded as “YES”.
For `CSCC[C@H](NC(=O)[C@H](CCC(N)=O)NC(=O)[C@H](CCCCN)NC(=O)[C@H](CC(C)C)NC(=O)CNC(=O)[C@@H](N)CCCNC(=N)N)C(=O)N[C@@H](CCCCN)C(=O)N[C@@H](CCCNC(=N)N)C(=O)N[C@H](C(=O)NCC(=O)N[C@@H](CC(=O)O)C(=O)N[C@@H](C)C(=O)N[C@@H](CC(N)=O)C(=O)O)C(C)C` [HDM35] (H-RGLKQMKRVGDAN-OH; N-terminus and C-terminus assumed), the Solubility test entry is reported as “YES”.
Consider `CC(C)[C@H](NC(=O)[C@H](CCCNC(=N)N)NC(=O)[C@@H](N)CCCCN)C(=O)NCC(=O)N[C@@H](CC(=O)O)C(=O)N[C@@H](C)C(=O)N[C@@H](CC(N)=O)C(=O)N[C@H](C(=O)N[C@@H](CCCCN)C(=O)N[C@@H](CO)C(=O)N[C@@H](CCC(=O)O)C(=O)N[C@@H](CC(=O)O)C(=O)NCC(=O)O)C(C)C` [HDM36] (H-KRVGDANVKSEDG-OH), for which the Solubility test entry is recorded as “YES”.
Consider `CC(C)[C@H](NC(=O)CNC(=O)[C@H](CC(=O)O)NC(=O)[C@H](CCC(=O)O)NC(=O)[C@H](CO)NC(=O)[C@H](CCCCN)NC(=O)[C@@H](NC(=O)[C@H](CC(N)=O)NC(=O)[C@H](C)N)C(C)C)C(=O)N[C@H](C(=O)N[C@@H](CCCCN)C(=O)N[C@@H](C)C(=O)N[C@@H](Cc1c[nH]cn1)C(=O)O)C(C)C` [HDM37] (H-ANVKSEDGVVKAH-OH), for which the Solubility test entry is reported as “YES”.
Turning to `CSCC[C@H](NC(=O)[C@H](CO)NC(=O)[C@@H](NC(=O)[C@@H](NC(=O)[C@H](CC(=O)O)NC(=O)[C@@H](N)CC(=O)O)C(C)C)C(C)C)C(=O)N[C@@H](CCC(=O)O)C(=O)N[C@@H](Cc1ccc(O)cc1)C(=O)N[C@@H](CC(=O)O)C(=O)N[C@@H](CC(C)C)C(=O)N[C@@H](C)C(=O)N[C@@H](Cc1ccc(O)cc1)C(=O)N[C@@H](CCCCN)C(=O)O` [HDM39] (H-DDVVSMEYDLAYK-OH; N-terminus and C-terminus assumed), the Solubility test entry was “NO*”.
Still for that read-out and setting: the result for `CSCC[C@H](NC(=O)[C@H](CCC(=O)O)NC(=O)[C@H](C)NC(=O)[C@H](CCCNC(=N)N)NC(=O)[C@@H](NC(=O)[C@@H](NC(=O)[C@@H](N)CC(=O)O)[C@@H](C)O)C(C)C)C(=O)N[C@H](C(=O)N[C@@H](CCCCN)C(=O)N[C@H](C(=O)N[C@@H](CC(C)C)C(=O)N[C@@H](C)C(=O)N1CCC[C@H]1C(=O)O)C(C)C)[C@@H](C)O` [HDM49] (H-DTVRAEMTKVLAP-OH; N-terminus and C-terminus assumed) reads “YES”.

The nature of a further series: precipitation in the aqueous solution of the binding assay. The class given is physicochemical. To be noted: aqueous solution of the MHC class II binding assay, read-out: Precipitation in assay: lowest concentration at which an insoluble white precipitate is seen. The text has this: This is a characteristic of promiscuous HLA-DRB1* binders.
Turning to `CC[C@H](C)[C@H](NC(=O)[C@@H](NC(=O)[C@H](C)NC(=O)[C@@H](NC(=O)[C@H](C)NC(=O)[C@H](CO)NC(=O)[C@H](Cc1c[nH]cn1)NC(=O)[C@@H](NC(=O)[C@H](CCC(N)=O)NC(=O)[C@H](C)NC(=O)[C@H](CC(C)C)NC(=O)[C@H](C)NC(=O)[C@H](CCC(=O)O)NC(=O)[C@@H](N)CCCNC(=N)N)[C@@H](C)O)[C@@H](C)CC)C(C)C)C(=O)O` [HDM09A] (H-REALAQTHSAIAVI-OH; N-terminus and C-terminus assumed), the solubility is 1000 µM and 2900 µg/mL.
Take `CC(C)C[C@H](NC(=O)[C@H](CCC(N)=O)NC(=O)[C@H](Cc1ccccc1)NC(=O)[C@@H]1CCCN1C(=O)[C@@H](N)CCCCN)C(=O)N[C@@H](CCC(=O)O)C(=O)N[C@@H](C)C(=O)N[C@H](C(=O)N[C@@H](Cc1ccccc1)C(=O)N[C@@H](CCC(=O)O)C(=O)N[C@@H](C)C(=O)N[C@@H](CC(N)=O)C(=O)N[C@@H](CCC(N)=O)C(=O)N[C@@H](CC(N)=O)C(=O)N[C@H](C(=O)N[C@@H](CCCCN)C(=O)O)[C@@H](C)O)C(C)C` [HDM21A] (H-KPFQLEAVFEANQNTK-OH; N-terminus and C-terminus assumed): the solubility was 5000 µM and 9300 µg/mL.
Regarding `CC[C@H](C)[C@H](NC(=O)[C@H](C)NC(=O)[C@H](CS)NC(=O)[C@H](C)NC(=O)[C@H](CC(C)C)NC(=O)[C@@H](NC(=O)CNC(=O)[C@@H](N)CC(=O)O)C(C)C)C(=O)N[C@@H](C)C(=O)N[C@H](C(=O)N[C@@H](Cc1c[nH]cn1)C(=O)N[C@@H](C)C(=O)N[C@@H](CCCCN)C(=O)N[C@H](C(=O)N[C@@H](CCCNC(=N)N)C(=O)O)[C@@H](C)CC)[C@@H](C)O` [HDM26A] (H-DGVLACAIATHAKIR-OH; N-terminus and C-terminus assumed), the solubility was 1000 µM and 1500 µg/mL.
Take `CC[C@H](C)[C@H](N)C(=O)NCC(=O)N[C@H](C(=O)N[C@H](C(=O)N[C@@H](CC(=O)O)C(=O)N[C@@H](CC(C)C)C(=O)N[C@@H](CCCCN)C(=O)NCC(=O)N[C@@H](CCC(=O)O)C(=O)N[C@@H](CC(C)C)C(=O)N[C@@H](CC(=O)O)C(=O)N[C@@H](CCSC)C(=O)N[C@@H](CCCNC(=N)N)C(=O)N[C@@H](CC(N)=O)C(=O)O)[C@@H](C)CC)[C@@H](C)CC` [HDM31] (H-IGIIDLKGELDMRN-OH): the solubility was 1000 µM and 1800 µg/mL.
